Measured values from US6667163B2, “Polynucleotide sequences encoding mouse sphingosine-1-phosphate phosphatase” (Merck & Co., Inc., priority 2000, dated 2003).

Key:
mSPP1 = molecular target: T1, mSPP1 (Mus musculus, UniProt Q9JI99); assay: Substrate degradation by membrane fractions from HEK293 cells transfected with mSPP1; format: biochemical, murine
T1 construct: expressed in transfected cells; host or cells: HEK293 (human embryonic kidney), transient CaCl2 transfection with mSPP1-pcDNA3.1; membrane pellet (40,000 x g)
T1 sequence (Q9JI99 1-430): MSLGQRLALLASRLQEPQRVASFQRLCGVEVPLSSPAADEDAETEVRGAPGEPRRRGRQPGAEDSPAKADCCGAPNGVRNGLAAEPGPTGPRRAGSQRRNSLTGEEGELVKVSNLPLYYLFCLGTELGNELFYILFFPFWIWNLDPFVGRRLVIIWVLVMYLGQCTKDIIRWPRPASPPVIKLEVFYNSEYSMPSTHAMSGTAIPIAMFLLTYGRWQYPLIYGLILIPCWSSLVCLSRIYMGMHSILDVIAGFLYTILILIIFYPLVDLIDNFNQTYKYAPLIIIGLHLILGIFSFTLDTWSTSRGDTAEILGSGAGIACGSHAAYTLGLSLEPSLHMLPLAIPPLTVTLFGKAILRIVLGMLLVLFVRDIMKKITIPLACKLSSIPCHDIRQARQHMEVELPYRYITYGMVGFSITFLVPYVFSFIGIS

[1] = tested on: Yeast (lbp1Δ::LEU2 sur2-2); assay: Australifungin sensitivity, microtiter broth dilution assay in transformed yeast; format: cell-based
Experimental: Yeast cells defective in LBP1 shunt sphingolipid metabolites into phosphatidylethanolamine and phosphatidylcholine synthesis and become extremely sensitive to ceramide synthase inhibition by the antifungal agent, australifungin. To test whether the mouse SPP phosphatases can substitute for the function of LBP1, mSPP1pRS414-ADH, mSPP1bpRS414-ADH, or control vector (pRS414-ADH) were transformed into lbp1Δ::LEU2sur2-2 and sensitivity to australifungin was determined using a microtiter broth dilution assay. Transformants were incubated overnight in Synthetic Complete-Tryptophan (SC-TRP) Yeast Nitrogen Base medium (DIFCO) containing 2% glucose and 0.078% tryptophan-free supplement mixture (BIO101) at […]. Cells were inoculated at an OD600=0.001 (˜1×10^4 yeast cells/ml), and serial 2-fold dilutions of australifungin were made from 5 μg/ml. Growth after 48 h at 30° C. was measured by absorbance readings with a Rainbow spectrometer (TECAN).

[2] = tested on: [3H]dihydrosphingosine-1-phosphate; assay: Dihydrosphingosine-1-phosphate phosphohydrolase activity in microsomal membranes of transformed yeast; format: biochemical; conditions: yeast lbp1Δ::LEU2 sur2-2 expressing the protein, compared to the vector control
Description: To test whether mSPP1 and mSPP1b encoded SPP phosphatases with properties similar to yeast Lbp1p, the mouse genes were subcloned into pRS414-ADH for expression of the genes in LBP1 mutants under the control of a strong, constitutive yeast promoter (ADH). The resulting plasmids were mSPP1pRS414-ADH and mSPP1bpRS414-ADH. Yeast (lbp1Δ::LEU2 sur2-2) were transformed with mSPP1pRS414-ADH, mSPP1bpRS414-ADH, or control vector (pRS414-ADH) using the lithium acetate/polyethylene glycol procedure and plated onto Synthetic Complete-Tryptophan (SC-TRP) Yeast Nitrogen Base medium (DIFCO) containing 1.5% agar, 2% glucose and 0.078% tryptophan-free supplement mixture (BIO101). Transformants were inoculated into SC-TRP media and incubated overnight at 30° C. to an OD600 of 1.0. […]
Microsomal membranes were collected by ultracentrifugation (100,000×g, 1 hour) and suspended in disruption buffer containing 20% glycerol. Dihydrosphingosine-1-phosphate phosphohydrolase activity was measured in 200 μl containing 50 mM KPO4 pH 7.2, 0.02% tergitol (NP-40), 2 μM [^3H]dihydrosphingosine-1-phosphate (40,000 cpm), 2 mM semicarbazide, and 0.3 to 5 μg of membrane protein. […] One ml of chloroform:methanol (3:2) was added and 50 μl of the chloroform layer was counted by liquid scintillation.

[3] = tested on: [3H]dihydrosphingosine-1-phosphate; assay: Dihydrosphingosine phosphate phosphohydrolase activity in membranes of transfected HEK293 cells; format: biochemical, Human; conditions: compared to vector transfected cells or mSPP1b transfected cells
Experimental: Microsomal membranes were collected by ultracentrifugation (100,000×g, 1 hour) and suspended in disruption buffer containing 20% glycerol. Dihydrosphingosine-1-phosphate phosphohydrolase activity was measured in 200 μl containing 50 mM KPO4 pH 7.2, 0.02% tergitol (NP-40), 2 μM [^3H]dihydrosphingosine-1-phosphate (40,000 cpm), 2 mM semicarbazide, and 0.3 to 5 μg of membrane protein. Following a 45 min incubation at 37° C., the assay was terminated with 200 μl 7 M NH4OH. One ml of chloroform:methanol (3:2) was added and 50 μl of the chloroform layer was counted by liquid scintillation.
Transfection-quality DNA was prepared for plasmids mSPP1-pcDNA3.1 and mSPP1b-pcDNA3.1 using endotoxin-free QIAGEN Maxi protocol (QIAGEN, Chatsworth, Calif.). Human embryonic kidney (HEK293) cells were maintained in high glucose Dulbecco's modified Eagle's medium (DMEM) containing 100 U/ml penicillin, 100 μg/ml streptomycin and 2 mM L-glutamine supplemented with 10% fetal bovine serum. Cells (1×10^6) were transfected with 20 μg of plasmid DNA by the CaCl2 procedure using a kit from SPECIALTY MEDIA (Lavallette, N.J.). Cells were harvested 48 hours after transfection with enzyme-free dissociation solution (SPECIALTY MEDIA, Lavallette, N.J.). […] Dihydrosphingosine phosphate phosphohydrolase activity was measured as described in Example 4.

NIH 3T3 fibroblasts = assay: Enforced expression of mSPP1 in NIH 3T3 fibroblasts: survival and apoptosis; format: cell-based; conditions: enforced expression in NIH 3T3 fibroblasts

ceramide-1-phosphate
degradation of substrate by mSPP1 membrane fractions (mSPP1): not

phosphatidic acid
degradation of substrate by mSPP1 membrane fractions (mSPP1): not

CCCCCC[C@@H](C)C1=C(O)C(=O)[C@@H]2[C@H](O)[C@H](C)C[C@H](O)[C@H]2[C@]1(C)C(=O)/C=C\O [australifungin]
increase in the MIC90 of australifungin ([1]; lbp1Δsur2-2 mutant expressing mSPP1, compared to vector transformed mutants, growth after 48 h at 30° C.): 64 fold
australifungin sensitivity ([1]; lbp1Δsur2-2 mutant expressing mSPP1b): did not alter

lysophosphatidic acid
degradation of substrate by mSPP1 membrane fractions (mSPP1): not

CCCCCCCCCCCCC/C=C/[C@@H](O)[C@@H](N)COP(=O)(O)O [SPP, Sphingosine-1-phosphate]
degradation of substrate by mSPP1 membrane fractions (mSPP1): markedly degraded

B1: mSPP1b: murine mSPP1b protein of SEQ ID NO:4, divergent 5′ end, lacks the activity of mSPP1; counterscreen or negative control (protein)
chain: MGEELGHCVQMRKSNERGKRFREQRVQRAQGKVSHHTKEEEETRVRQMSQGWEEKEYGYYLFCLGTELGNELFYILFFPFWIWNLDPFVGRRLVIIWVLVMYLGQCTKDIIRWPRPASPPVIKLEVFYNSEYSMPSTHAMSGTAIPIAMFLLTYGRWQYPLIYGLILIPCWSSLVCLSRIYMGMHSILDVIAGFLYTILILIIFYPLVDLIDNFNQTYKYAPLIIIGLHLILGIFSFTLDTWSTSRGDTAEILGSGAGIACGSHAAYTLGLSLEPSLHMLPLAIPPLTVTLFGKAILRIVLGMLLVLFVRDIMKKITIPLACKLSSIPCHDIRQARQHMEVELPYRYITYGMVGFSITFLVPYVFSFIGIS
increase in membrane dihydrosphingosine-1-phosphate phosphohydrolase activity [2]: same level of phosphohydrolase activity as control

B2: mSPP1: murine sphingosine-1-phosphate phosphatase, recombinant enzyme having the amino acid sequence of SEQ ID NO:3 (protein)
chain: MSLGQRLALLASRLQEPQRVASFQRLCGVEVPLSSPAADEDAETEVRGAPGEPRRRGRQPGAEDSPAKADCCGAPNGVRNGLAAEPGPTGPRRAGSQRRNSLTGEEGELVKVSNLPLYYLFCLGTELGNELFYILFFPFWIWNLDPFVGRRLVIIWVLVMYLGQCTKDIIRWPRPASPPVIKLEVFYNSEYSMPSTHAMSGTAIPIAMFLLTYGRWQYPLIYGLILIPCWSSLVCLSRIYMGMHSILDVIAGFLYTILILIIFYPLVDLIDNFNQTYKYAPLIIIGLHLILGIFSFTLDTWSTSRGDTAEILGSGAGIACGSHAAYTLGLSLEPSLHMLPLAIPPLTVTLFGKAILRIVLGMLLVLFVRDIMKKITIPLACKLSSIPCHDIRQARQHMEVELPYRYITYGMVGFSITFLVPYVFSFIGIS
increase in membrane dihydrosphingosine-1-phosphate phosphohydrolase activity [2]: 3 to 4 fold
increase in dihydrosphingosine phosphate phosphohydrolase activity [3]: 4 to 5 fold
apoptosis (NIH 3T3 fibroblasts): induced the characteristic traits of apoptosis
cell survival (NIH 3T3 fibroblasts): markedly decreased survival
